The subject of one assay is LS411N cells. As to the kind of experiment: DHX9 Cellular Proliferation Assay (CellTiter-Glo), LS411N. The assay is classed as cell-based. As to conditions: Homo sapiens, LS-411N, 120 hours, read-out: LS411N (CRC-MSI-H) Antiproliferative IC50. A general note: Cellular ATP, detected with luciferase, serves as a proxy for viable cell number.
The target in assay [1] is T1, Human recombinant DHX9 protein (Homo sapiens, UniProt Q08211).
T1 construct: purchased Viva
The experiment in a line: DHX9 ATPase assay (ADP-Glo biochemical assay). As to conditions: for DHX9 Biochemical Max Inhibition: maximum inhibition in ATPase assay, 10 μM Aurintricarboxylic acid = 100%; for IC50: read-out: DHX9 Biochemical Inflection Point.

Assay [2] deals with DHX9 (circBRIP1 mRNA in HCT116 cells). As to the kind of experiment: DHX9 circBRIP1 Cellular Target Engagement TaqMan Multiplex Assay. As to conditions: Homo sapiens, HCT-116, TaqMan Multiplex Assay (footnote *), circBRIP1 qPCR, 72 hours. The assay is classed as cell-based.
The test system of a further assay is NCI-H747 cells. The experiment in a line: DHX9 Cellular Proliferation Assay (CellTiter-Glo), NCI-H747. In kind it is cell-based. As to conditions: Homo sapiens, 120 hours, read-out: H747 (CRC-MSS) Antiproliferative IC50.
The subject of assay [3] is DHX9 (circBRIP1 mRNA in HCT116 cells). As to the kind of experiment: DHX9 circBRIP1 Cellular Target Engagement SYBR Green Assay. In kind it is cell-based. As to conditions: Homo sapiens, HCT-116, circBRIP1 qPCR, 72 hours. In general terms: Quantitative PCR measures a nucleic acid by following its amplification.

For orientation: EC50 means the midpoint of the concentration-response curve.

Where only a bound is given, the exact number is not on record here.

T1 sequence (Q08211 whole entry): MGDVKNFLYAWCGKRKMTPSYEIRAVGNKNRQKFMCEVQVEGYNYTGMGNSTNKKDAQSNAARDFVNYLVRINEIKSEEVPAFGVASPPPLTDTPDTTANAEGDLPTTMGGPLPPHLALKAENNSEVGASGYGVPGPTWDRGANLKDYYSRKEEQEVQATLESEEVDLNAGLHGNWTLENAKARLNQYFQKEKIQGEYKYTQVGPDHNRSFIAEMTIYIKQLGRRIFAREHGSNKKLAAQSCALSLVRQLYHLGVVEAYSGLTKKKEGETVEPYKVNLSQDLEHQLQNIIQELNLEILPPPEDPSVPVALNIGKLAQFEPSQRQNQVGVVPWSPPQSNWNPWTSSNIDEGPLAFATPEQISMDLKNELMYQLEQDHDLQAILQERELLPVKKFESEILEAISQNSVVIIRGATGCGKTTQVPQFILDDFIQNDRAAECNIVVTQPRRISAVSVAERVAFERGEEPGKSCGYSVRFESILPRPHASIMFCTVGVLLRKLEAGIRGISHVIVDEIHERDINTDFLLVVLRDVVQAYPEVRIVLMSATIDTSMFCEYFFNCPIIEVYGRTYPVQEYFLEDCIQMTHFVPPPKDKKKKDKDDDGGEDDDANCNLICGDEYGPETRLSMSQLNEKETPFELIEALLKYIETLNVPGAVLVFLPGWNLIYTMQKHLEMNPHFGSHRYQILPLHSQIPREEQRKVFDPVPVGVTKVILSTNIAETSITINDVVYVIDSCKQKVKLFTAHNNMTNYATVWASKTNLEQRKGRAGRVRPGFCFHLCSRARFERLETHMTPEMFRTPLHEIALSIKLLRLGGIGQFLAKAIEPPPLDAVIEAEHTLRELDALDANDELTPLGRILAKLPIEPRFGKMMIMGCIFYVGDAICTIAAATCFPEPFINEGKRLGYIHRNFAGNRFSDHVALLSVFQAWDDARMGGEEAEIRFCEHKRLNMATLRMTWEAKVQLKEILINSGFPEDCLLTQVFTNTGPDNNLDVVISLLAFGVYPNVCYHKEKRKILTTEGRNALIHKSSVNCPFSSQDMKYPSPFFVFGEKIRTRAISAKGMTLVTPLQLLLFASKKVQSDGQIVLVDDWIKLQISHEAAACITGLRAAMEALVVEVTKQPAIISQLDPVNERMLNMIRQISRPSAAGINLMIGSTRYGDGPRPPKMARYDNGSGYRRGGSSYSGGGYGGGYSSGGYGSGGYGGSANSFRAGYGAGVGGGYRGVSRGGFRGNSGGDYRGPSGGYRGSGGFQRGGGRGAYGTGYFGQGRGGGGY

`Cn1cc(C(=O)Nc2cccc(NS(C)(=O)=O)c2)cc1-c1ccc(N2CC(F)(F)C2)cn1` [Example 160, 5-[5-(3,3-difluoroazetidin-1-yl)pyridin-2-yl]-N-(3-methanesulfonamidophenyl)-1-methylpyrrole-3-carboxamide]: the figures for the IC50 (in the assay with LS411N cells; in assay [1]; with NCI-H747 cells) were 9450 nM, 28.4 nM and over 10000 nM, respectively. Further, the “DHX9 Biochemical Max Inhibition” value in assay [1] turned out to be 89.6%. The compound also showed an EC50 in assay [2] of 1410 nM.
With `CC(=O)Nc1cccnc1-c1csc(C(=O)Nc2cccc(NS(C)(=O)=O)c2)c1` [Example 94], in assay [1], the “DHX9 Biochemical Max Inhibition” value worked out at 71.2% and the IC50 was found to be 125 nM. This compound also had an EC50 in assay [3] of over 30000 nM.
As for `CCOc1ncc(-c2csc(C(=O)Nc3cccc(NS(C)(=O)=O)c3)c2)cn1` [Example 63], in assay [1], the “DHX9 Biochemical Max Inhibition” value came out at 66.9% and the IC50 was 121 nM. This compound yielded a concentration giving a half-maximal response (EC50) in assay [3] of 18800 nM.
As to `CS(=O)(=O)Nc1cccc(NC(=O)c2cc(-c3cccs3)ccn2)c1` [Example 44], in assay [1], the “DHX9 Biochemical Max Inhibition” value is listed as 47.2% and the IC50 came to 6510 nM. In addition, in assay [3], the EC50 was over 30000 nM.
In the case of `CS(=O)(=O)Nc1cccc(NC(=O)c2cc(-c3ncccc3O)cs2)c1` [Example 69], in assay [1], the “DHX9 Biochemical Max Inhibition” value was determined as 75.6% and the IC50 was 16.3 nM. Moreover, it took 4790 nM to reach a half-maximal effect in assay [3] (EC50).
Turning to `CS(=O)(=O)Nc1cc(C=O)cc(NC(=O)c2cc(-c3ccccc3)cs2)c1` [Example 159, N-(3-formyl-5-(methylsulfonamido)phenyl)-4-phenylthiophene-2-carboxamide], in assay [1], the “DHX9 Biochemical Max Inhibition” value is listed as 50.7% and the IC50 stood at 690 nM. The 50% effective concentration (EC50) in assay [3] is over 10000 nM.
Taken in the same sequence, the figures for `CS(=O)(=O)Nc1cccc(NC(=O)c2cc(-c3cccc(N)c3)cs2)c1` [Example 58] were 69.2%, 55.8 nM and 3120 nM.
`CS(=O)(=O)Nc1cccc(NC(=O)c2cc(-c3ccccc3)c(CO)s2)c1` [Example 153, 5-(hydroxymethyl)-N-(3-(methylsulfonamido)phenyl)-4-phenylthiophene-2-carboxamide]: in assay [1], the “DHX9 Biochemical Max Inhibition” value was found to be 77.9% and the IC50 is 43.2 nM. In assay [3], the EC50 stood at 5910 nM.
Taken in the same sequence, the figures for `CS(=O)(=O)Nc1cccc(NC(=O)c2cc(-c3cc(C(=O)O)ccn3)cs2)c1` [Example 87] were 77.2%, 22.6 nM and at least 30000 nM.
`CCS(=O)(=O)Nc1cccc(NC(=O)c2cc(-c3ccccc3)cs2)c1` [Example 96, N-(3-(ethylsulfonamido)phenyl)-4-phenylthiophene-2-carboxamide]: in assay [1], the “DHX9 Biochemical Max Inhibition” value is given as 59.6% and the IC50 is 89.9 nM. Further, the EC50 in assay [3] came to 22200 nM.
`CC(=O)c1ccc(S(=O)(=O)Nc2ccc(C(=O)Nc3cccc(NS(C)(=O)=O)c3)cc2)cc1` [Example 20]: in assay [1], the “DHX9 Biochemical Max Inhibition” value was determined as 72% and the IC50 is 664 nM. Further, in assay [3], the concentration giving a half-maximal response (EC50) is over 30000 nM.
As for `Cc1ccc(O)cc1-c1csc(C(=O)Nc2cccc(NS(C)(=O)=O)c2)c1` [Example 75], in assay [1], the “DHX9 Biochemical Max Inhibition” value was 70.1% and the IC50 was determined as 82.1 nM. The same compound showed an EC50 in assay [3] of 8280 nM.
Turning to `CS(=O)(=O)Nc1cccc(NC(=O)c2cc(-c3ccccc3N)cs2)c1` [Example 88], in assay [1], the “DHX9 Biochemical Max Inhibition” value turned out to be 68.2% and the IC50 was 65.4 nM. Further, the EC50 in assay [3] is 10500 nM.
In the case of `Cc1ncccc1-c1csc(C(=O)Nc2cccc(NS(C)(=O)=O)c2)c1` [Example 60], in assay [1], the “DHX9 Biochemical Max Inhibition” value was 69.2% and the IC50 was found to be 76.6 nM. In assay [3], this compound displayed an EC50 of 10900 nM.
As for `CS(=O)(=O)Nc1cccc(NC(=O)c2csc(-c3nnc[nH]3)n2)c1` [Example 33], in assay [1], the “DHX9 Biochemical Max Inhibition” value is on record as 65.4% and the IC50 stood at 1020 nM. In assay [3], this compound returned a concentration for a half-maximal effect (EC50) of over 30000 nM.
Taken in the same sequence, the figures for `CS(=O)(=O)Nc1cccc(NC(=O)c2cc(-c3ccc(F)cc3)cs2)c1` [Example 53] were 70.4%, 188 nM and 22700 nM.
Taken in the same sequence, the figures for `CS(=O)(=O)Nc1cccc(NC(=O)c2cc(-c3ccccc3)c(C#N)s2)c1` [Example 100, 5-cyano-N-(3-(methylsulfonamido)phenyl)-4-phenylthiophene-2-carboxamide] were 65.8%, 333 nM and 28500 nM.
On the same counts, the results for `Cn1nc(C(=O)Nc2cccc(NS(C)(=O)=O)c2)cc1-c1ccc(O)cc1` [Example 79] are 71.2%, 467 nM and over 30000 nM.
Consider `Cc1ccc(-c2csc(C(=O)Nc3cccc(NS(C)(=O)=O)c3)c2)cn1` [Example 65], for which, in assay [1], the “DHX9 Biochemical Max Inhibition” value came to 66.9% and the IC50 was 41.8 nM. This compound also displayed an EC50 in assay [3] of 8560 nM.
On to `CS(=O)(=O)Nc1cccc(NC(=O)c2cc(-c3cccc(N)n3)cs2)c1` [Example 85], for which, in assay [1], the “DHX9 Biochemical Max Inhibition” value is reported as 70.7% and the IC50 amounted to 19.5 nM. The compound further registered an EC50 in assay [3] of 1390 nM.
Regarding `CS(=O)(=O)Nc1cccc(NC(=O)c2ccc(N3CCCC3)cc2)c1` [Example 31], in assay [1], the “DHX9 Biochemical Max Inhibition” value worked out at 80.3% and the IC50 worked out at 864 nM. In assay [3], this compound yielded an EC50 of over 30000 nM.
Taken in the same sequence, the figures for `CNC(=O)c1sc(C(=O)Nc2cccc(NS(C)(=O)=O)c2)cc1-c1ccccc1` [Example 152] were 69.7%, 123 nM and 16600 nM.
As for `CS(=O)(=O)Nc1cccc(NC(=O)c2cnn(-c3ccccn3)c2)c1` [Example 41], in assay [1], the “DHX9 Biochemical Max Inhibition” value is reported as 61.2% and the IC50 is 285 nM. Moreover, the response in assay [3] was half-maximal at 27400 nM (EC50).
Taken in the same sequence, the figures for `CS(=O)(=O)Nc1cccc(NC(=O)c2cc(-c3ccccc3OCc3ccccc3)cs2)c1` [Example 77] were 72.3%, 89.4 nM and 2040 nM.
Consider `CS(=O)(=O)Nc1cccc(NC(=O)c2cc(-c3cccc(O)c3)cs2)c1` [Example 73], for which, in assay [1], the “DHX9 Biochemical Max Inhibition” value was 63.7% and the IC50 was found to be 109 nM. This compound displayed an EC50 in assay [3] of 6150 nM.
In the case of `CC(C)(C)OC(=O)Nc1cccc(-c2csc(C(=O)Nc3cccc(NS(C)(=O)=O)c3)c2)c1` [Example 72], in assay [1], the “DHX9 Biochemical Max Inhibition” value turned out to be 64.4% and the IC50 amounted to 494 nM. The compound further returned an EC50 in assay [3] of over 30000 nM.

These data come from patent US20250179013A1, “INHIBITORS OF RNA HELICASE DHX9 AND USES THEREOF” (ACCENT THERAPEUTICS, INC., priority 2022, published 2025).
